The subject of assay [1] is NCI-H661. Kind of assay: Antiproliferative activity against human NCI-H661 cells measured after 48 hrs by MTT assay. The class given is functional, cell-based. To be noted: for IC50: NCI-H661, 48 h. In general terms: Tetrazolium assays rely on reduction of a dye to a coloured formazan, in cell work by metabolically active cells.
Assay [2] relates to A549. Kind of assay: Antiproliferative activity against human A549 cells measured after 48 hrs by MTT assay. The class given is functional, cell-based. To be noted: for IC50: A549, 48 h.
Assay [3] deals with NCI-H1299. In words: Antiproliferative activity against human NCI-H1299 cells measured after 48 hrs by MTT assay. To be noted: for IC50: NCI-H1299, 48 h. Type of assay: functional, cell-based.
Assay [4] deals with A549. In words: Potentiation of raloxifene-induced cytotoxicity against human A549 cells assessed as fold reduction in raloxifene IC50 at 1:2 ratio of raloxifene to compound measured after 48 hrs by MTT assay relative to raloxifene alone. Type of assay: functional.
Assay [5] has as its system NCI-H661. Kind of assay: Potentiation of raloxifene-induced cytotoxicity against human NCI-H661 cells assessed as combination index at 1:7 ratio of raloxifene to compound measured after 48 hrs by MTT assay. Type of assay: functional.
In assay [6] the test system is NCI-H1299. In words: Potentiation of cisplatin-induced cytotoxicity against human NCI-H1299 cells assessed as fold reduction in cisplatin IC50 at 1:35 ratio of cisplatin to compound measured after 48 hrs by MTT assay relative to cisplatin alone. The class given is functional.
The test system of assay [7] is A549. Kind of assay: Inhibition of colony formation in human A549 cells assessed as reduction in size of colonies at 52.5 to 105 uM measured after 48 hrs by colony formation assay. Type of assay: functional, cell-based. To be noted: dose 52.5-105 µM.
The subject of assay [8] is A549. In words: Antiproliferative activity against human A549 cells measured after 24 hrs by MTT assay. Type of assay: functional, cell-based.
The subject of assay [9] is A549. Kind of assay: Potentiation of cisplatin-induced cytotoxicity against human A549 cells assessed as combination index at 1:4 ratio of cisplatin to compound measured after 48 hrs by MTT assay. The class given is functional.
Assay [10] has as its system A549. Kind of assay: Potentiation of raloxifene-induced cytotoxicity against human A549 cells assessed as combination index at 1:2 ratio of raloxifene to compound measured after 48 hrs by MTT assay. The class given is functional.
Assay [11] relates to A549. Kind of assay: Induction of apoptosis in human A549 cells assessed as increase in apoptotic cells at 210 uM measured after 48 hrs by Annexin V-FITC/PI staining based flow cytometry relative to control. The class given is functional. On the technique in general: Flow cytometry measures light scatter and fluorescence of single cells or particles in a stream.
Assay [12] has as its system NCI-H1299. Kind of assay: Potentiation of raloxifene-induced cytotoxicity against human NCI-H1299 cells assessed as combination index at 1:20 ratio of raloxifene to compound measured after 48 hrs by MTT assay. Type of assay: functional.
Assay [13] has as its system NCI-H1299. In words: Antiproliferative activity against human NCI-H1299 cells measured after 72 hrs by MTT assay. Type of assay: functional, cell-based.
The test system of assay [14] is NCI-H1299. Kind of assay: Potentiation of cisplatin-induced cytotoxicity against human NCI-H1299 cells assessed as combination index at 1:35 ratio of cisplatin to compound measured after 48 hrs by MTT assay. The class given is functional.
Assay [15] concerns NCI-H1299. Kind of assay: Antimigratory activity against human NCI-H1299 cells assessed as reduction in wound closure measured after 24 hrs by wound healing assay. The class given is functional, cell-based.
Assay [16] deals with NCI-H1299. In words: Antiproliferative activity against human NCI-H1299 cells measured after 24 hrs by MTT assay. Type of assay: functional, cell-based.
Assay [17] deals with NCI-H661. Kind of assay: Potentiation of raloxifene-induced cytotoxicity against human NCI-H661 cells assessed as fold reduction in raloxifene IC50 at 1:7 ratio of raloxifene to compound measured after 48 hrs by MTT assay relative to raloxifene alone. The class given is functional.
The subject of assay [18] is NCI-H661. In words: Potentiation of cisplatin-induced cytotoxicity against human NCI-H661 cells assessed as fold reduction in cisplatin IC50 at 1:14 ratio of cisplatin to compound measured after 48 hrs by MTT assay relative to cisplatin alone. Type of assay: functional.
Assay [19] deals with A549. Kind of assay: Reduction in PDE5 protein expression in human A549 cells at 0.25 to 0.5 IC50 measured after 48 hrs by Western blot analysis. Type of assay: functional, cell-based. (In general: In western blotting, separated proteins are transferred to a membrane and probed.)
Assay [20] has as its system A549. In words: Inhibition of colony formation in human A549 cells assessed as reduction in number of colonies at 52.5 to 105 uM measured after 48 hrs by colony formation assay. Type of assay: functional, cell-based. To be noted: dose 52.5-105 µM.
Assay [21] has as its system NCI-H1299. In words: Potentiation of raloxifene-induced cytotoxicity against human NCI-H1299 cells assessed as fold reduction in raloxifene IC50 at 1:20 ratio of raloxifene to compound measured after 48 hrs by MTT assay relative to raloxifene alone. The class given is functional.
Assay [22] deals with NCI-H661. In words: Antiproliferative activity against human NCI-H661 cells measured after 72 hrs by MTT assay. Type of assay: functional, cell-based.
Assay [23] concerns NCI-H1299. Kind of assay: Antiproliferative activity against human NCI-H1299 cells by MTT assay. To be noted: time 24-72 hrs, TDE = time-dependent effect. Type of assay: functional, cell-based.
The test system of assay [24] is A549. Kind of assay: Cell cycle arrest in human A549 cells assessed as increase in cell population at G2 phase at 52.5 uM measured after 48 hrs by propidium iodide staining based flow cytometry. The class given is functional.
The test system of assay [25] is A549. In words: Antiproliferative activity against human A549 cells by MTT assay. Type of assay: functional, cell-based. To be noted: time 24-72 hrs, TDE = time-dependent effect.
The subject of assay [26] is NCI-H661. In words: Antiproliferative activity against human NCI-H661 cells measured after 24 hrs by MTT assay. Type of assay: functional, cell-based.
Assay [27] concerns NCI-H661. Kind of assay: Potentiation of cisplatin-induced cytotoxicity against human NCI-H661 cells assessed as combination index at 1:14 ratio of cisplatin to compound measured after 48 hrs by MTT assay. The class given is functional.
The test system of assay [28] is A549. In words: Potentiation of cisplatin-induced cytotoxicity against human A549 cells assessed as fold reduction in cisplatin IC50 at 1:4 ratio of cisplatin to compound measured after 48 hrs by MTT assay relative to cisplatin alone. The class given is functional.
Assay [29] relates to A549. In words: Reduction in Bcl-2 gene expression in human A549 cells at 0.1 IC50 measured after 48 hrs by qRT-PCR analysis. Type of assay: functional, cell-based.
The test system of assay [30] is A549. Kind of assay: Reduction in PDE5 gene expression in human A549 cells at 0.1 IC50 measured after 48 hrs by qRT-PCR analysis. Type of assay: functional, cell-based.
The test system of assay [31] is A549. Kind of assay: Antiproliferative activity against human A549 cells measured after 72 hrs by MTT assay. Type of assay: functional, cell-based.
Assay [32] has as its system NCI-H661. Kind of assay: Antiproliferative activity against human NCI-H661 cells by MTT assay. The class given is functional, cell-based. To be noted: time 24-72 hrs, TDE = time-dependent effect.

The source made the active and inactive calls. No cut-off for these calls is given here.

In general, IC50 refers to the point on the concentration scale where inhibition reaches its midpoint. A higher IC50 goes with weaker potency.

On to `O=C(c1ccc(OCCN2CCCCC2)cc1)c1c(-c2ccc(O)cc2)sc2cc(O)ccc12` [RALOXIFENE], for which the results for the IC50 in [1], in assay [2] and in [3] were 44.5 µM, 45.6 µM and 45 µM, respectively.
On to `CN1CC(=O)N2[C@H](c3ccc4c(c3)OCO4)c3[nH]c4ccccc4c3C[C@@H]2C1=O` [TADALAFIL], for which the “fold change (FC)” value in [4] was determined as 1.9; in assay [6], 2.6; in [17], 2.1; in assay [18], 2; in [21] it was 5.2; in assay [28], 2.1. Also, the Activity result in [1] is “Dose-Dependent Effect”; in assay [2], “Dose-Dependent Effect”; in [8], “Dose-Dependent Effect”; in assay [11] it was 22.2%; in assay [13], “Dose-Dependent Effect”; in [15], “Dose-Dependent Effect”. For the same molecule, the Activity entry in assay [16] was “Dose-Dependent Effect”; in assay [19], “Dose-Dependent Effect”; in assay [3] it was “Dose-Dependent Effect”; in [22] it was “Dose-Dependent Effect”; in assay [23], “Tde”; in assay [25], “Tde”. The Activity result was “Dose-Dependent Effect” in [26], “Dose-Dependent Effect” in assay [31] and “Tde” in assay [32]. In addition, the IC50 in assay [1] came out at 281 µM; in assay [2] it was 106 µM; in assay [8] (A549, 24 h), 354 µM; in assay [13] (NCI-H1299, 72 h), 127 µM; in [16] (NCI-H1299, 24 h), 359 µM; in assay [3], 274 µM. Besides, the IC50 was 243 µM in [22] (NCI-H661, 72 h); 876 µM in assay [26] (NCI-H661, 24 h); 73.9 µM in assay [31] (A549, 72 h). For the same molecule, the CI was 0.89 in assay [5]; 0.92 in assay [9]; 0.98 in assay [10]; 0.44 in [12]; 0.78 in [14]; 0.89 in assay [27]. For the same molecule, the inhibition result in assay [7] and in [20] was “Active” throughout. Moreover, the result in assay [24], in assay [29] and in [30] was Active.

Values taken from ChEMBL document CHEMBL5584328, “Integrating computational and experimental chemical biology revealed variable anticancer activities of phosphodiesterase isoenzyme 5 inhibitors (PDE5i) in lung cancer” (RSC Med Chem, 2024).
